Measured values as given in a melting point compilation (Tetko et al.; mined from patent text by program, amines drawn as free bases though some values may be those of a salt).

Row | melting point [°C] | SMILES
1 | 205 | CC(C)(C)OC(=O)NCC(=O)NCc1ccc(Nc2n[nH]c3ncnc(Nc4cccc(Cl)c4)c23)cc1
2 | 188 to 190 | CCOC(=O)c1ccc2[nH]c3c(c2c1)CC(N(C)C)CC3 (configuration not stated)
3 | 134 to 136 | O=C(NCCCn1ccnc1)c1ccccc1
4 | 83 to 85 | O=C(C=C1CCN(Cc2ccc(F)cc2)CC1)NCc1ccc(F)c(F)c1
5 | 103 to 105 | CNc1nc(-c2cccc(C#Cc3cccnc3)c2)c2cc(OC)c(OC)cc2n1
6 | 73 | CCc1cccc(Cn2[nH]c(N)cc2=O)c1
7 | 129 to 130 | Cc1cc(C)n2ncc(F)c2n1
8 | 195 to 197 | CCOCC(=O)Nc1ccc(C2=NNC(=O)CC2C)cc1 (configuration not stated)
9 | 97 | O=c1oc2ccccc2c(OCCN2CCOCC2)c1-c1ccccc1
10 | 150 to 151 | CCC1C2C(C(=O)N1Cc1ccc3c(c1)OCO3)C(c1ccc(C#N)cc1)N1CCCC21 (configuration not stated)
11 | 85 to 95 | Cc1cc(OCCNC(=O)C2Cc3ccccc3N2S(=O)(=O)c2ccc(-c3ccccc3C(F)(F)F)cc2)ccc1CC(=O)O (configuration not stated)
12 | 152 to 154 | Nc1c(-c2ccc(Cl)cc2)sc2ccccc12
13 | 84 to 85 | COC(=O)CCCCNC(=O)C[C@H]1O[C@H](c2cccc(OC)c2OC)c2cc(Cl)ccc2N(CC(C)(C)CO)C1=O
14 | 110 to 111 | CCCCOCCOc1ccc(-c2ccc(N3CCC(COC(C)=O)C3)c(C=C(C)C(=O)O)c2)cc1 (configuration not stated)
15 | 168 to 170 | COc1cccc2c(=O)c(C(=O)C3CCCCC3)c[nH]c12
16 | 169 to 170 | O=C1C(NCCN2CCCC2)=CC(=O)c2oc(-c3cccc(Br)c3)nc21
17 | 226 to 231 | CN1CCN(C(=O)c2ccccc2C(c2ccc(O)cc2)c2ccc(O)cc2)CC1
18 | 158 to 161 | CCOC(=N)c1ccc(-c2cc3ncn([C@H](C)[C@](O)(Cn4cncn4)c4ccc(F)cc4F)c(=O)c3s2)cc1
19 | 253 to 255 | N#CC=CNc1ccnc(-c2ccncc2)n1
20 | 154 | COC(=O)c1cc(-c2ccc(OC)c(OC)c2)nc2ccc(Br)cc12
21 | 129 to 131 | CCN1CC(=O)N(C)c2cc([N+](=O)[O-])c(OC)cc2C1
22 | 206 to 207 | CC(C)(C)c1cc(CCc2ccc(NC(=O)Nc3ccccc3)cc2)cc(C(C)(C)C)c1O
23 | 134 to 137 | Cc1ccc(S(=O)(=O)N2CCC(c3ccc(C=O)cc3)CC2)cc1

Row | melting point [°C] | SMILES
24 | 149 to 153 | COc1nc(NC(=O)NS(=O)(=O)c2sccc2C(F)=C(F)C(F)(F)F)nc(OC)n1
25 | 210 to 211 | CC(C)C(=O)OCC(=O)C12OC(C3CCCCC3)OC1CC1C3CCC4=CC(=O)C=CC4(C)C3C(O)CC12C (configuration not stated)
26 | 140 to 141 | CCCCCC(C=CC1C(O[Si](C)(C)C(C)(C)C)CC2Cc3c(cccc3OC(=O)c3ccccc3)CC21)O[Si](C)(C)C(C)(C)C (configuration not stated)
27 | 226 | O=C(O)c1cc2cc(OC(F)F)ccc2nc1C(=O)O
28 | 174 to 176 | CCOC(=O)c1ncc2[nH]c3cccc(Oc4ccccc4)c3c2c1COC
29 | 57 to 60 | O=C(O)[C@H](Cc1ccccc1)NC(=O)N1CCOCC1
30 | 111 to 113 | Cc1cc([C@@H](O)[C@@H]2[C@@H](C)CCCC2(C)C)ccc1C#N
31 | 152 to 154 | Cn1c(C(F)(F)F)cc(=O)n(-c2cc(OS(=O)(=O)c3ccc(Cl)cc3)c(Cl)cc2F)c1=O
32 | 87.6 to 89 | CC1=C(c2ccccc2F)C(=O)N(C(C)(C)C(O)c2ccc(F)c(C)c2)CO1 (configuration not stated)
33 | 80 to 84 | O=C(c1cn(C(=O)c2ccc(Cl)cc2)c2ccccc12)C1CSC(c2cccnc2)N1 (configuration not stated)
34 | 207 | CCN(C)c1nc2sc3c(NCc4ccncc4)ncnc3c2c2c1CCC(C)(C)C2
35 | 151 | Nc1ccc(NC(=O)[C@@H](NC(=O)c2ccc(C(=O)O)cc2)c2ccccc2)cc1
36 | 111 to 112 | COc1ccc(C2CNC(=O)O2)cc1OC1CCCC1 (configuration not stated)
37 | 96 to 98 | COC(=O)C(C)(C)OCc1cc2cc(C(F)(F)F)ccc2n1S(=O)(=O)c1ccc2c(c1)OCCN2C
38 | 103 | COc1cc(C)nc(-c2cccc(-c3ccccc3C)n2)n1
39 | 89.9 | CCCCCCCCC(SCCCCCC)C(=O)Nc1c([N+](=O)[O-])ccc2ncccc12 (configuration not stated)
40 | 170 | Cc1cccc(NC(=O)NCC(=O)N(CC(=O)N(c2ccccc2)C(C)C)c2ccccc2)c1
41 | 210 | COC(=O)CCCC=C1SC(=S)N(N=c2sc3ccccc3s2)C1=O
42 | 108 to 110 | Cc1cc(C)nc(Oc2ccc([N+](=O)[O-])cc2)n1
43 | 256 | O=C(O)c1c2n(c3cc(N4CCN(CCO)CC4)c(F)cc3c1=O)CCS2
44 | 121 to 122 | O=C(c1cccs1)C(Cc1ccccc1F)n1cncn1 (configuration not stated)
45 | 139 to 141 | Cc1nc(N2CCN(Cc3nc(C)n(-c4ccccc4)n3)C2=O)sc1C(=O)NCc1ccccc1
46 | 238 to 241 | Cc1cc(Nc2c(C#N)cnc3cc(Br)ccc23)ccc1OCc1ccccn1

Row | melting point [°C] | SMILES
47 | 105 to 108 | CCOc1cc(N=Nc2ccc(OC)cc2)c(O)c(C(C)(C)C)c1
48 | 49 to 50 | CCSC1CC(=O)CC(SCC)C1(O)c1ccccc1 (configuration not stated)
49 | 167 to 170 | Cc1onc(NS(=O)(=O)c2cccc3ccccc23)c1Br
50 | 154 to 155 | NCCC(O)(c1ccc(Cl)cc1)c1ccc(-c2ccc(Br)cc2)cc1 (configuration not stated)
51 | 92 to 94 | CC(=O)N[C@@H](CSC(=O)C(C)(C)C)C(=O)NCCSC(C)=O
52 | 120 to 122 | CCCCCCCCCC(=O)N[C@@H](C)C(=O)N[C@@H](Cc1ccccc1)C(=O)OC
53 | 125 | COc1ccc(S(C)(=O)=O)cc1C(=O)NCC1CCCN1C12CCC(CC1)C2 (configuration not stated)
54 | 116 to 118 | COc1cc2ncc(C#N)c(Nc3ccc(C(F)(F)F)cc3)c2cc1OC
55 | 192 to 193 | CN1CCN(c2ccc(-c3cnc4c(c3)N(Cc3cc(F)ccc3F)CCN4)cn2)CC1
56 | 126 to 129 | O=C(O)C=C=Cc1ccc(C2CCCCC2)cc1
57 | 140 to 143 | Cc1ccc(N2N=C(C(F)(F)F)CC2c2ccc(S(C)(=O)=O)cc2)cc1 (configuration not stated)
58 | 129 to 131 | CN(c1ccc(Cl)cc1)c1ncnc2cc(Cl)ccc12
59 | 85 | C=CCOc1ccc(C(=O)Oc2ccc3ccc(OC(=O)C(=C)C)cc3c2)cc1
60 | 178 | CN(C)c1cccc2c(S(=O)(=O)Nc3ncc(Br)nc3Br)cccc12
61 | 186 to 190 | O=[N+]([O-])c1c(-c2c(C(F)(F)F)[nH]c(-c3ccc(Cl)cc3)c2[N+](=O)[O-])csc1Br
62 | 142 | COn1c(-c2ccccc2)nc2ccc(Cn3ccnc3)cc21
63 | 212 to 213 | CC(C)n1nc(-c2cc(-c3ccn[nH]3)cnc2-c2ccccc2)ccc1=O
64 | 169 to 172 | O=c1[nH]nc(-c2ccccc2SCc2ccccc2)o1
65 | 155 to 157 | CC(=O)NC[C@H]1CN(c2ccc(C3CCN(CCF)CC3)c(F)c2)C(=O)O1
66 | 300 to 303 | COc1cc(-c2csc3c2OCCO3)c(OC)c2c(OC)cc(-c3csc4c3OCCO4)c(OC)c12
67 | 114 to 115 | Cc1nnc(F)c(-c2c(F)cc(F)cc2F)c1-c1ccc(Cl)cc1
68 | 117 to 119 | COc1cccc([C@H]2O[C@H](CC(=O)Nc3cccc(CCCCC(=O)O)c3)C(=O)N(CC(C)(C)CO)c3ccc(Cl)cc32)c1OC
69 | 150 to 151 | O=C(Nc1ccc(C(F)(F)F)cc1)OC1CCCNC1 (configuration not stated)

Row | melting point [°C] | SMILES
70 | 192 | CNC(=O)c1cccc(NC(=O)Cc2cccc3sccc23)c1
71 | 168 to 176 | COc1ccccc1Oc1c(Cl)nc(N2CCOCC2)nc1NS(=O)(=O)c1ccc(C(C)C)cn1
72 | 230 to 232 | O=C(Nc1nc2c(s1)CC(N1CCN(c3ccccn3)CC1)CC2)c1ccccc1 (configuration not stated)
73 | 194 to 195 | Cc1oc(-c2ccccc2)nc1COc1ccc2c(c1)CCC(CC1SC(=O)NC1=O)C2 (configuration not stated)
74 | 142 to 146 | OCCN1CCC(=C2c3ccccc3Oc3ccc(Br)cc32)CC1
75 | 242 | CCOC(=O)c1c(O)c2cc(C)ccc2[nH]c1=O
76 | 163 to 165 | CCOC(=O)C1=C(C)NC(c2c(F)cccc2F)=NC1c1ccc(F)cc1Cl (configuration not stated)
77 | 152 to 153 | CCc1ccc(Oc2ccc([C@@H]3CCCN4CCS(=O)(=O)N=C34)cc2)cc1
78 | 142 to 144 | CCCn1nc(C(F)(F)CC)nc1Cc1ccc(-c2ccccc2-c2nnn[nH]2)nc1
79 | 197 to 200 | CN1CCN(c2ccc(-c3cnn4c(N)c(-c5ccccc5Cl)cnc34)cc2)CC1
80 | 239 to 240 | Cc1nccc(N2CCN(C(=O)C3CCN(S(=O)(=O)c4ccc(Br)cc4)CC3)CC2)n1
81 | 216 to 220 | CCCCc1nn(CC(F)(F)F)c(C(=O)O)c1Cc1ccc2oc(-c3ccccc3-c3nnn[nH]3)c(Br)c2c1
82 | 164 | N#Cc1nn(-c2c(Cl)cc(Cl)cc2Cl)cc1C1CC1(Br)Br (configuration not stated)
83 | 135 to 141 | O=C1NC(=O)C(C2C3CCCC32)O1 (configuration not stated)
84 | 162 to 167 | CC1(C)Oc2ccc(C#N)cc2[C@@H](NC(=O)Nc2ccc(-c3ncno3)cc2)[C@@H]1O
85 | 181 to 183 | CC(C(=O)O)c1ccc2c(c1)CCc1cccnc1S2 (configuration not stated)
86 | 68 to 69 | N#Cc1cc(Cc2ccccc2)ccc1N
87 | 159 to 160 | COc1ccccc1-c1cc(C(F)(F)F)nn1-c1ccc(S(N)(=O)=O)c(F)c1
88 | 116 to 120 | CC(=O)N1CCCC(C(=O)c2ccc(N3CCCCC3)cc2)C1 (configuration not stated)
89 | 222 to 224 | NS(=O)(=O)c1cscc1C(=O)O
90 | 132 to 134 | CCc1ccnc2cc(OC)c(OCc3ccccc3)cc12
91 | 99 to 100 | Cc1c(OC(F)F)ccnc1CSc1nc2ccccc2[nH]1

Row | SMILES | melting point [°C]
92 | N#CC(Cl)CC(Cl)(Cl)C=O (configuration not stated) | 49 to 50
93 | CN1CCN(c2nc3cccccc-3n2)CC1 | 93 to 95
94 | COCC(=O)C1CCC2C3CCC4CC(O)CCC4(C)C3C(=O)CC12C (configuration not stated) | 144 to 146
95 | O=S(=O)(Br)c1ccc(Br)s1 | 48 to 50
96 | CC1(C)N=C(c2ccccc2Cl)c2cc([N+](=O)[O-])ccc2-n2cnnc21 | 262
97 | NN1CCN(CCc2c[nH]c3ccccc23)CC1 | 115 to 117
